The values that follow come from US20210052516A1, “METHOD FOR INCREASING AKKERMANSIA IN INTESTINAL BACTERIAL FLORA BY INGESTING ASTAXANTHIN” (Fuji Chemical Industries Co., Ltd., priority 2018, published 2021).

The conditions of series [1]: in vivo; cited from earlier work.
Series [2] has as its system intestinal peristaltic movement induced by CRH. As to the kind of experiment: Intestinal peristaltic movement induced by CRH administration. The series is classed as in vivo, Wistar rats. The settings on record: diet containing 0.02% astaxanthin for four weeks; CRH intravenously. An excerpt:
(§1) Six-week-old Wistar rats (rodents) were used to compare the intestinal bacterial flora of a group fed with a diet containing 0.02% astaxanthin (an Asx group) and the intestinal bacterial flora of a group fed with a normal diet (a control group).
(§2) Saline or corticotropin-releasing hormone (CRH) was intravenously administered to the rats after feeding each group with each corresponding diet for four weeks.
Furthermore, enhancement of intestinal peristaltic movement induced by administration of CRH was reduced in the Asx group.

The nature of the next series: Body weight of a rodent. The series is classed as in vivo. The settings on record: diet containing 0.02% astaxanthin vs normal diet; 24-day-old Wistar rats; PND72,76. An excerpt: Twenty four-day-old Wistar rats (rodents) were used to compare the body weights of a group fed with a diet containing 0.02% astaxanthin (an Asx group) and the body weights of a group fed with a normal diet (a control group).

Series [3] can be described thus: Astaxanthin concentration in human blood (HPLC). The settings on record: 1 to 60 mg of astaxanthin per day. The class given is in vivo. Here is the method: Next, an astaxanthin concentration in human blood was investigated.
In this context, a blood astaxanthin concentration means an astaxanthin concentration in blood serum or blood plasma.
A blood astaxanthin concentration was measured by HPLC.
Five hundred microliters of 50 μg/ml butylhydroxytoluene in ethanol, 100 μl of 100 ng/ml internal standard (ethyl 8′-apo-beta-caroten-8′-oate, Carote Nature, 1010) in acetone, and 500 μl of distilled water were added to 100 μl of the obtained blood serum or blood plasma sample, and the mixture was stirred vigorously for 15 seconds by a vortex mixer.
Furthermore, 5 ml of hexane was added to the blood serum or blood plasma, and subsequently the mixture was stirred vigorously for 15 seconds by the vortex mixer three times and centrifuged at 3500 rpm for 10 minutes.
Four milliliters of the supernatant after centrifugation was collected and filtrated through a membrane filter with a mesh size of 0.45 μm. […]
In parallel, a standard solution was prepared by adding 1 ml of 10 μg/ml internal standard (ethyl 8′-apo-beta-caroten-8′-oate) in acetone to 100 ml of 100 ng/ml astaxanthin (astaxanthin, ALEXIS BIOCHEMICALS, 460-031-M250) in acetone, and was also subjected to reverse-phase HPLC. The blood astaxanthin concentration was calculated based on the peak area ratio of the above-mentioned two solutions obtained by HPLC. […]

Another series relates to Clostridia. As to the kind of experiment: Intestinal bacterial flora in cecum contents, 16S rRNA sequencing: Clostridia. The class given is in vivo, Wistar rats. The settings on record: diet containing 0.02% astaxanthin for four weeks, control group 58.2%.
Source text: as §1, §2
(§3) Three hours after administration, the rats were sacrificed and the intestinal bacterial floras in the cecum contents of each group were analyzed and compared. The result is shown in the graph of FIG. 1.
(§4) The analysis method included extracting DNA in the cecum contents, amplifying the V3-V4 region in a 16SrRNA gene, and performing sequencing.

The test system of the next series is Lactobacillus. As to the kind of experiment: Intestinal bacterial flora in cecum contents, 16S rRNA sequencing: Lactobacillus. The series is classed as in vivo, Wistar rats. The settings on record: diet containing 0.02% astaxanthin for four weeks, control group 10.9%.
Source text: as §1, §2, §3, §4

A short description of series [4]: Change in astaxanthin concentration in human blood on long-term ingestion. The series is classed as in vivo. The settings on record: 12 mg/day astaxanthin in free form (two capsules of Haematococcus alga extract) for 42 days. Here is the method:
Next, a test on humans was performed to monitor how an astaxanthin concentration in blood (in blood plasma) changed when astaxanthin was ingested for a long period. A study was performed as follows:
Ten healthy Japanese males and females aged 20 years or older and younger than 50 years
The subjects ingested two capsules per day (equivalent to 12 mg/day astaxanthin in free form) together with water 30 minutes after breakfast for 42 days, with one capsule containing 60 mg of Haematococcus alga extract (equivalent to 6 mg of astaxanthin in free form) and 270 mg of edible oil and fat.
Blood collection was performed 1, 6, 13, 20, 27, 34, and 42 days after the first ingestion of the capsules to obtain blood plasma. The blood astaxanthin concentration was measured by the above-mentioned analytical method (HPLC).

The subject of series [5] is bacteria of the genus Akkermansia (Akkermansia muciniphila). As to the kind of experiment: Intestinal bacterial flora in cecum contents, 16S rRNA sequencing: Akkermansia. The class given is in vivo. The settings on record: diet containing 0.02% astaxanthin for four weeks vs normal diet, 6-week-old Wistar rats.
Source text: Thus, as detailed below, 6-week-old Wistar rats (rodents) were used to compare the intestinal bacterial floras of a group fed with an astaxanthin-containing diet for four weeks and a group fed with a normal diet for four weeks. […] Six-week-old Wistar rats (rodents) were used to compare the intestinal bacterial flora of a group fed with a diet containing 0.02% astaxanthin (an Asx group) and the intestinal bacterial flora of a group fed with a normal diet (a control group). Saline or corticotropin-releasing hormone (CRH) was intravenously administered to the rats after feeding each group with each corresponding diet for four weeks. Three hours after administration, the rats were sacrificed and the intestinal bacterial floras in the cecum contents of each group were analyzed and compared. […] The analysis method included extracting DNA in the cecum contents, amplifying the V3-V4 region in a 16SrRNA gene, and performing sequencing.
The test system of another series is Akkermansia muciniphila. The settings on record: articles reported so far; mice; cited from earlier work.

The structures appear in SMILES notation.

As for `CC1=C(/C=C/C(C)=C/C=C/C(C)=C/C=C/C=C(C)/C=C/C=C(C)/C=C/C2=C(C)C(=O)C(O)CC2(C)C)C(C)(C)CC(O)C1=O` (stereo not drawn) [astaxanthin, 3,3′-dihydroxy-β,β-carotene-4,4′-dione], in series [1], the “absorption percentage in the intestine” value is given as “about 5%”. Besides, the “enhancement of intestinal peristaltic movement induced by administration of CRH” value in [2] was “reduced”. For the same compound, in the series “Body weight of a rodent”, the “increase in body weight” value was “clearly less”. The “blood astaxanthin concentration (serum or plasma), range” value in series [3] is “no more than 600 ng/ml”. Further, the “proportion of Clostridia in the intestinal bacterial flora of the Asx group” value with Clostridia is listed as 47.6%. Further, the “proportion of Lactobacillus in the intestinal bacterial flora of the Asx group” value in the series with Lactobacillus is listed as 5.9%. In series [4], the “astaxanthin concentration in human blood plasma at plateau” value is “around 200 ng/ml” and the “time after beginning of ingestion at which blood plasma concentration started to plateau” value is listed as “about 6 days”. The “number of bacteria of the genus Akkermansia in the Asx group relative to the control group” value in series [5] is “about 11.7 times”.
Consider `COc1cc(CNC(=O)CCCC/C=C/C(C)C)ccc1O` [Capsaicin], for which, in the series with Akkermansia muciniphila, the “effect on Akkermansia muciniphila population” value is given as “effect of increasing Akkermansia muciniphila”.
